test system: miR-124; assay: Up-regulation of miR-124 in CD3/CD28 antibody-activated T cells (SYBR green quantitative PCR); format: cell-based; details: T-cell, 72 h; activated human T cells, 1 μM compound, 3 days, relative to DMSO, U6 internal reference
Protocol: The effect of the compound on miR-124 expression levels was detected in CD3/CD28 antibody-activated T cells. After the activated T cells were treated with the compound, the total cellular RNA was extracted, the cDNA obtained from reverse transcription was used as a template, and quantification was performed by an SYBR green fluorescence quantitative PCR method using a specific miR-124 primer.
Isolation of T cells: Purchased human peripheral blood mononuclear cells (PBMCs) were counted, centrifuged, and washed once with a separation buffer (PBS, pH 7.4, containing 0.5% BSA and 2 mM EDTA), and the supernatant was discarded. The components were added in an amount of 40 μL of a buffer and 10 μL of pan T Cell Biotin-Antibody Cocktail per 1×10^7 cells, and the pellet was resuspended. The resulting suspension was mixed and incubated in a refrigerator at 4° C. for 5 min. After the incubation was completed, the components were added in an amount of 30 μL of a buffer and 20 μL of Pan T Cell MicroBeads Cocktail per 1×10^7 cells, and the resulting suspension was mixed and incubated in a refrigerator at 4° C. for 10 min. The separation column (LS column) was rinsed with 3 mL of a cell separation buffer in advance, loaded with the above cell suspension, and then repeatedly washed 3 times with 1 mL of the cell separation buffer. The effluent cell fluid was collected in a 15 mL centrifuge tube, thus giving the enriched T cells. The cells were counted and added at a density of 1×10^6 cells/mL to an RPMI1640 medium (complete medium) containing 10% FBS and 40) U/mL IL-2, and the resulting mixture was kept on ice for later use.
Activation of T cells: The corresponding Dynabead Human T-Activator CD3/CD28 for T Cell Expansion and Activation were added to a 1.5 mL centrifuge tube in an amount of 25 μL of the activated magnetic beads per 1×10^6 cells, which should be shaken on a shaker for about 30 s before aspiration. In the centrifuge tube, at a volume ratio of greater than 1:1, the activated magnetic beads were washed 3 times with a medium, and all the washing liquid was removed after the last washing. A complete medium with a volume equal to the starting volume was added to resuspend the activated magnetic beads. The washed activated magnetic beads were added to the cell resuspension, and the resulting mixture was well mixed. The cells were added to a six-well plate at 3 mL/well and incubated in a cell incubator at 37° C. with 5% CO2 for 2 days.
Compound treatment: A 20 mM compound stock solution was diluted to 200 μM with DMSO, and then diluted 4-fold to 50 μM (50)×) with a complete medium. The resulting mixture was well mixed for later use. 4-fold diluted DMSO (25% DMSO) was added to negative control wells. T cells were activated for two days and pipetted uniformly. The 1.5 mL centrifuge tube was mounted on a magnetic rack, and the activated magnetic beads were removed. The cell suspension was collected, and the cells were counted and then centrifuged at 300×g for 10 min to discard the supernatant. The cells were then resuspended to 1.02×10^6 cells/mL, and 980 μL of the cell suspension and 20 μL of the 50× compound were added to each 24-well plate, with the final concentration of the compound being 1 μM. The cells were placed in a cell incubator at 37° C. with 5% CO2 for another 3 days.
RNA extraction: T cells were collected by centrifugation at 1500 rpm for 3 min, washed once with PBS, and centrifuged again to discard the supernatant. The total cellular RNA was extracted using a microRNA extraction kit according to the package insert. 700 μL of a Trizol cell lysis buffer was added to the cell pellet, and the resulting mixture was pipetted uniformly and left at room temperature for 5 min. 140 μL of chloroform was added, and the resulting mixture was well mixed with shaking and left to stand at room temperature for 3 min. The chloroform-cell lysis buffer mixture was centrifuged at 12000×g and 4° C. for 15 min. […]

SMILES	fold induction at 1 µM
COc1ccc(Cl)c2nc(Nc3ccc4c(c3)OC(F)(F)O4)ccc12 [Compound 24, 8-Chloro-N-(2,2-difluorobenzo[d][1,3]dioxol-5-yl)-5-methoxyquinolin-2-amine]	3
Cc1cc(Cl)c2nc(Nc3ccc4c(c3)OC(F)(F)O4)ccc2c1 [Compound 18, 8-Chloro-N-(2,2-difluorobenzo[d][1,3]dioxol-5-yl)-6-methylquinolin-2-amine]	2.7
FC1(F)Oc2ccc(Nc3ccc4c5c(cc(Cl)c4n3)CCC5)cc2O1 [Compound 14, 5-Chloro-N-(2,2-difluorobenzo[d][1,3]dioxol-5-yl)-8,9-dihydro-7H-cyclopenta[f]quinolin-3-amine]	1.5
O=C(O)[C@H]1O[C@@H](N(c2ccc3c(c2)OCCO3)c2ccc3cccc(Cl)c3n2)[C@H](O)[C@@H](O)[C@@H]1O [Compound 22, (2S,3S,4S,5R,6R)-6-((8-Chloroquinolin-2-yl)(2,3-dihydrobenzo[b][1,4]dioxin-6-yl)amino)-3,4,5-trihydroxytetrahydro-2H-pyran-2-carboxylic acid]	1.7
CC(=O)N1CCc2cc(Nc3ccc4cccc(Cl)c4n3)ccc21 [Compound 5, 1-(5-((8-Chloroquinolin-2-yl)amino)indolin-1-yl)ethan-1-one]	1.4
Clc1cccc2ccc(Nc3ccc4c(c3)OCO4)nc12 [Compound 10, N-(Benzo[d][1,3]dioxol-5-yl)-8-chloroquinolin-2-amine]	2.1
Clc1cccc2ccc(Nc3ccc4c(c3)CCO4)nc12 [Compound 3, 8-Chloro-N-(2,3-dihydrobenzofuran-5-yl)quinolin-2-amine]	5.2
FC1(F)Oc2ccc(Nc3ccc4c(Cl)ccc(Cl)c4n3)cc2O1 [Compound 25, 5,8-Dichloro-N-(2,2-difluorobenzo[d][1,3]dioxol-5-yl)quinolin-2-amine]	6.7
Cc1ccc2ccc(Nc3ccc4c(c3)OC(F)(F)O4)nc2c1Cl [Compound 15, 8-Chloro-N-(2,2-difluorobenzo[d][1,3]dioxol-5-yl)-7-methylquinolin-2-amine]	5.7
FC1(F)Oc2ccc(Nc3ccc4ccc(Cl)c(Cl)c4n3)cc2O1 [Compound 17, 7,8-Dichloro-N-(2,2-difluorobenzo[d][1,3]dioxol-5-yl)quinolin-2-amine]	5.9
CC1(C)Oc2ccc(Nc3ccc4cccc(Cl)c4n3)cc2O1 [Compound 12, 8-Chloro-N-(2,2-dimethylbenzo[d][1,3]dioxol-5-yl)quinolin-2-amine]	1.8
FC1(F)Oc2ccc(Nc3ccc4cc(Cl)cc(Cl)c4n3)cc2O1 [Compound 20, 6,8-Dichloro-N-(2,2-difluorobenzo[d][1,3]dioxol-5-yl)quinolin-2-amine]	5
Clc1cccc2ccc(Nc3ccc4c(c3)CCC4)nc12 [Compound 4, 8-Chloro-N-(2,3-dihydro-1H-inden-5-yl)quinolin-2-amine]	5.4
[2H]C1([2H])Oc2ccc(Nc3ccc4cccc(Cl)c4n3)cc2O1 [Compound 11, N-(Benzo[d][1,3]dioxol-5-yl-2,2-d2)-8-chloroquinolin-2-amine]	2.4
Cc1ccc(Cl)c2nc(Nc3ccc4c(c3)OC(F)(F)O4)ccc12 [Compound 23, 8-Chloro-N-(2,2-difluorobenzo[d][1,3]dioxol-5-yl)-5-methylquinolin-2-amine]	2.3
Clc1cccc2ccc(Nc3cnc4c(c3)OCO4)nc12 [Compound 9, N-(8-Chloroquinolin-2-yl)-[1,3]dioxolo[4,5-b]pyridin-6-amine]	2.4
FC1(F)Oc2ccc(Nc3ccc4cccc(Cl)c4n3)cc2OC1(F)F [Compound 8, 8-Chloro-N-(2,2,3,3-tetrafluoro-2,3-dihydrobenzo[b][1,4]dioxin-6-yl)quinolin-2-amine]	5.4
O=C(O)[C@H]1O[C@@H](N(c2ccc3c(c2)OCO3)c2ccc3cccc(Cl)c3n2)[C@H](O)[C@@H](O)[C@@H]1O [Compound 21, (2S,3S,4S,5R,6R)-6-(Benzo[d][1,3]dioxol-5-yl(8-chloroquinolin-2-yl)amino)-3,4,5-trihydroxytetrahydro-2H-pyran-2-carboxylic acid]	1.9
Clc1cccc2ccc(Nc3ccc4c(c3)CCCC4)nc12 [Compound 7, 8-Chloro-N-(5,6,7,8-tetrahydronaphthalen-2-yl)quinolin-2-amine]	5.2
COc1ccc2ccc(Nc3ccc4c(c3)OC(F)(F)O4)nc2c1Cl [Compound 16, 8-Chloro-N-(2,2-difluorobenzo[d][1,3]dioxol-5-yl)-7-methoxyquinolin-2-amine]	3.9
CC1(C)Cc2cc(Nc3ccc4cccc(Cl)c4n3)ccc2O1 [Compound 13, 8-Chloro-N-(2,2-dimethyl-2,3-dihydrobenzofuran-5-yl)quinolin-2-amine]	2.8
N#Cc1cc(Cl)c2nc(Nc3ccc4c(c3)OC(F)(F)O4)ccc2c1 [Compound 26, 8-Chloro-2-((2,2-difluorobenzo[d][1,3]dioxol-5-yl)amino)quinoline-6-carbonitrile]	2.4
Clc1cccc2ccc(Nc3ccc4c(c3)OCCO4)nc12 [Compound 6, 8-Chloro-N-(2,3-dihydrobenzo[b][1,4]dioxin-6-yl)quinolin-2-amine]	2.7
